# In US7671027B2, “Use of GnRH agonists to support the luteal phase during infertility treatment” (PregLem S.A., priority 2002, dated 2010):
# Where two headings read alike, the source gives them in different places. Square brackets hold non-standard residues; d marks the D form. pGlu = O=C1CC[C@@H](C(=O)O)N1
# Legend:
# [1] = system: patients in ART treatments; settings: cited from earlier work
# [2] = system: patients suffering from unexplained infertility, mild to moderate endometrioisis or partner sperm alteration; assay: Dose finding study: luteal phase duration and pregnancy outcome after ovarian stimulation and IUI; format: in vivo; settings: for Positive pregnancy test: patients positive/total, day 14 of luteal phase; for Clinical pregnancy: patients/total
# Description: (§1) Patients suffering from unexplained infertility, or from infertility resulting from mild to moderate endometrioisis, or an infertility resulting from a mild or moderate alteration of their partner sperm, and whom have not conceived despite regular sexual intercourses during a period of one or two years, usually undergo medical assistance. The most often used treatment is ovarian stimulation coupled to an IUI (Hughes G. H. 1997, The effectiveness of ovulation induction and intra-uterine insemination in the treatment of persistent infertility: a meta-analysis. Hum Reprod. 12: 1865-1872).
# (§2) A prospective, randomised, parallel groups dose finding study was conducted in this patient population.
# (§3) The number and the size of each follicle was recorded.
# (§4) Between 12 and 48 hours after triggering ovulation, the patient's partner provided a sperm sample, after 2 to 5 days of abstinence. Motile sperm cells were separated from seminal fluid, dead sperm cells, leucocytes, and cellular debris using a suitable method such as a “swim-up” or a Percol gradient. On that same day, the motile sperm cell suspension was used to perform an intra-uterine insemination with a catheter inserted into the uterine cavity via the cervix. The procedure may be repeated on the next day.
# [3] = system: patients who did not conceive; assay: Dose finding study: luteal phase serum progesterone levels; format: in vivo, human
# Description: as §1, §2, §3, §4
# [4] = system: patients who did not conceive; assay: Dose finding study: luteal phase serum oestradiol levels; format: in vivo, human
# Description: as §1, §2, §3, §4
# [5] = system: patients (hypothalamic amenorrhea); settings: nasal administration every 4 hours after IV GnRH induction of ovulation; in half of the patients; cited from earlier work
# [6] = Day 0, buserelin 100 μg/2 days IN
# [7] = Day 0, buserelin 100 μg/3 days IN
# [8] = Day 1, buserelin 100 μg/2 days IN
# [9] = Day 1, buserelin 100 μg/3 days IN
# [10] = Day 4, buserelin 100 μg/2 days IN
# [11] = Day 4, buserelin 100 μg/3 days IN
# [12] = Day 7, buserelin 100 μg/2 days IN
# [13] = Day 7, buserelin 100 μg/3 days IN
# [14] = Day 9, buserelin 100 μg/2 days IN
# [15] = Day 9, buserelin 100 μg/3 days IN
# [16] = Day 11, buserelin 100 μg/2 days IN
# [17] = Day 11, buserelin 100 μg/3 days IN
# [18] = Day 11, buserelin 100 μg/day IN
# [19] = Day 14, buserelin 100 μg/2 days IN
# [20] = Day 14, buserelin 100 μg/3 days IN
# [21] = Day 14, buserelin 100 μg/day IN
compound,measurement,setting,value
CC(=O)[C@H]1CC[C@H]2[C@@H]3CCC4=CC(=O)CC[C@]4(C)[C@H]3CC[C@]12C [progesterone],relative efficacy of IM progesterone vs vaginal progesterone,"[1]; C.I. of 1.02-1.75, in favor of the IM route (p<0.05)",1.33
same,odds to obtain a pregnancy compared to no luteal support,"[1]; progesterone IM, CI: 1.36-4.27, p<0.05",2.38
same,odds to obtain a pregnancy compared to no luteal support,"[1]; vaginal route, C.I. of 0.95-4.67 (NS)",2.11
"CCNC(=O)[C@@H]1CCCN1C(=O)[C@H](CCCNC(=N)N)NC(=O)[C@H](CC(C)C)NC(=O)[C@@H](COC(C)(C)C)NC(=O)[C@H](Cc1ccc(O)cc1)NC(=O)[C@H](CO)NC(=O)[C@H](Cc1c[nH]c2ccccc12)NC(=O)[C@H](Cc1cnc[nH]1)NC(=O)[C@@H]1CCC(=O)N1 [Buserelin, <Glu^1-His^2-Trp^3-Ser^4-Tyr^5-D-Ser(t-But)^6-Leu^7-Arg^8-Pro^9-EA (SEQ ID NO: 2)]","luteal support, summary of tables 1-3","[2]; buserelin 100 μg IN once a day for 14 days, compared with the other groups","a longer luteal phase, higher progesterone and oestradiol levels in late luteal phase and a trend toward a higher clinical pregnancy rate"
same,Positive pregnancy test,[2]; buserelin 100 μg/2 days IN,2/6
same,Clinical pregnancy,[2]; buserelin 100 μg/2 days IN,1/6
same,Positive pregnancy test,[2]; buserelin 100 μg/3 days IN,1/5
same,Clinical pregnancy,[2]; buserelin 100 μg/3 days IN,0/5
same,Positive pregnancy test,[2]; buserelin 100 μg/day IN,2/6
same,Clinical pregnancy,[2]; buserelin 100 μg/day IN,2/6
same,Luteal phase duration (mean ± SD),"[2]; buserelin 200 μg IN trigger, then 100 μg/day IN for 14 days, n=6",15.3 ± 0.5 days
same,adverse local reactions of intra-nasal administration,[2]; self-administered intra-nasal buserelin 100 μg,did not carry the risk of adverse local reactions such as pain and abces
same,Luteal phase serum progesterone level (mean ± SD),[3]; [6],0.9 ± 0.7 ng/mL
same,Luteal phase serum progesterone level (mean ± SD),[3]; [7],0.7 ± 0.3 ng/mL
same,Luteal phase serum progesterone level (mean ± SD),"[3]; Day 0, buserelin 100 μg/day IN",1.1 ± 0.4 ng/mL
same,Luteal phase serum progesterone level (mean ± SD),[3]; [8],1.3 ± 0.8 ng/mL
same,Luteal phase serum progesterone level (mean ± SD),[3]; [9],0.9 ± 0.2 ng/mL
same,Luteal phase serum progesterone level (mean ± SD),"[3]; Day 1, buserelin 100 μg/day IN",1.2 ± 0.3 ng/mL
same,Luteal phase serum progesterone level (mean ± SD),[3]; [10],7.6 ± 3.2 ng/mL
same,Luteal phase serum progesterone level (mean ± SD),[3]; [11],5.1 ± 2.0 ng/mL
same,Luteal phase serum progesterone level (mean ± SD),"[3]; Day 4, buserelin 100 μg/day IN",6.2 ± 2.3 ng/mL
same,Luteal phase serum progesterone level (mean ± SD),[3]; [12],11.7 ± 4.6 ng/mL
same,Luteal phase serum progesterone level (mean ± SD),[3]; [13],11.5 ± 3.6 ng/mL
same,Luteal phase serum progesterone level (mean ± SD),"[3]; Day 7, buserelin 100 μg/day IN",13.9 ± 2.9 ng/mL
same,Luteal phase serum progesterone level (mean ± SD),[3]; [14],8.2 ± 6.4 ng/mL
same,Luteal phase serum progesterone level (mean ± SD),[3]; [15],10.8 ± 6.6 ng/mL
same,Luteal phase serum progesterone level (mean ± SD),"[3]; Day 9, buserelin 100 μg/day IN",16.2 ± 7.5 ng/mL
same,Luteal phase serum progesterone level (mean ± SD),[3]; [16],8.3 ± 6.5 ng/mL
same,Luteal phase serum progesterone level (mean ± SD),[3]; [17],10.0 ± 3.7 ng/mL
same,Luteal phase serum progesterone level (mean ± SD),[3]; [18],14.1 ± 3.3 ng/mL
same,Luteal phase serum progesterone level (mean ± SD),[3]; [19],5.8 ± 4.7 ng/mL
same,Luteal phase serum progesterone level (mean ± SD),[3]; [20],3.3 ± 2.4 ng/mL
same,Luteal phase serum progesterone level (mean ± SD),[3]; [21],8.4 ± 4.3 ng/mL
same,Luteal phase serum oestradiol level (mean ± SD),[4]; [6],247 ± 79 pg/mL
same,Luteal phase serum oestradiol level (mean ± SD),[4]; [7],182 ± 76 pg/mL
same,Luteal phase serum oestradiol level (mean ± SD),"[4]; Day 0, buserelin 100 μg/day IN",175 ± 071 pg/mL
same,Luteal phase serum oestradiol level (mean ± SD),[4]; [8],164 ± 75 pg/mL
same,Luteal phase serum oestradiol level (mean ± SD),[4]; [9],325 ± 160 pg/mL
same,Luteal phase serum oestradiol level (mean ± SD),[4]; [10],139 ± 77 pg/mL
same,Luteal phase serum oestradiol level (mean ± SD),[4]; [11],106 ± 61 pg/mL
same,Luteal phase serum oestradiol level (mean ± SD),"[4]; Day 4, buserelin 100 μg/day IN",179 ± 101 pg/mL
same,Luteal phase serum oestradiol level (mean ± SD),[4]; [12],70 ± 19 pg/mL
same,Luteal phase serum oestradiol level (mean ± SD),[4]; [13],144 ± 118 pg/mL
same,Luteal phase serum oestradiol level (mean ± SD),"[4]; Day 7, buserelin 100 μg/day IN",163 ± 30 pg/mL
same,Luteal phase serum oestradiol level (mean ± SD),[4]; [14],65 ± 15 pg/mL
same,Luteal phase serum oestradiol level (mean ± SD),[4]; [15],109 ± 88 pg/mL
same,Luteal phase serum oestradiol level (mean ± SD),"[4]; Day 9, buserelin 100 μg/day IN",232 ± 77 pg/mL
same,Luteal phase serum oestradiol level (mean ± SD),[4]; [16],75 ± 4 pg/mL
same,Luteal phase serum oestradiol level (mean ± SD),[4]; [17],123 ± 61 pg/mL
same,Luteal phase serum oestradiol level (mean ± SD),[4]; [18],200 ± 30 pg/mL
same,Luteal phase serum oestradiol level (mean ± SD),[4]; [19],124 ± 68 pg/mL
same,Luteal phase serum oestradiol level (mean ± SD),[4]; [20],82 ± 31 pg/mL
same,Luteal phase serum oestradiol level (mean ± SD),[4]; [21],154 ± 85 pg/mL
"<Glu^1-His^2-Trp^3-Ser^4-Tyr^5-His^6-Leu^7-Arg^8-Pro^9-Gly^10-NH2 (SEQ ID NO: 1) ([pGlu]HWSYHLRPG-NH2; SMILES CC(C)C[C@H](NC(=O)[C@H](Cc1c[nH]cn1)NC(=O)[C@H](Cc1ccc(O)cc1)NC(=O)[C@H](CO)NC(=O)[C@H](Cc1c[nH]c2ccccc12)NC(=O)[C@H](Cc1c[nH]cn1)NC(=O)[C@@H]1CCC(=O)N1)C(=O)N[C@@H](CCCNC(=N)N)C(=O)N1CCC[C@H]1C(=O)NCC(N)=O; listed as Homo sapiens) [native GnRH, synthetic, native GnRH decapeptide]",support of the luteal phase,[5],completely ineffective
